Earlier results in patent publication US20110092560A1, “TOPICAL COMPOSITION FOR CONTROLLING ECTOPARASITES IN DOGS AND CATS” (CEVA SANTE ANIMALE SA, priority 2008, published 2011).

Tests used:
[1] = mouse, in vivo, po
[2] = in vivo

N#Cc1nn(-c2c(Cl)cc(C(F)(F)F)cc2Cl)c(N)c1[S+]([O-])C(F)(F)F (centres unmarked) [fipronil, Fipronil]
metabolites eliminated in the faeces [1]: 45-75% | metabolites eliminated in the urine [1]: 5-25% | plasma half-life [1]: 149 to 200 h | tissues in which residues were found [1]: fat, the adrenal glands, pancreas, skin, liver, kidney, and muscle | carcinogenic, teratogenic or mutagenic potential [2]: not carcinogenic, teratogenic or mutagenic
